Like-named read-outs stand apart in the source and are kept apart here.
How the values were obtained:
[1] = test system: patients undergoing CABG surgery; assay type: in vivo
Description: All patients from all clinical trials were included: a total of 4043 patients undergoing CABG surgery, evaluable for efficacy, and randomized to receive either placebo (n=2031) or acadesine (0.1 mg-kg^−1-min^−1; n=2012) by intravenous infusion for 7 continuous hours and via the cardioplegia solution.
Individual patient data were collected prospectively using standardized forms and methods and double-data entry. A general parametric approach and analysis-by-patient meta-analysis were used, including both fixed effects and random effects models. Inclusion and exclusion criteria, general methodology, and outcome assessment techniques were similar for all trials.
Meta-analysis included all patients undergoing CABG surgery in the United States, Canada, and Europe who had received acadesine at a dose of 0.1 mg-kg^1min^1. No patients satisfying these criteria were excluded. All 5 studies were randomized, placebo controlled, double blinded, and performed with approval from the 81 participating McSPI institutions and with patient informed consent. Inclusion and exclusion criteria, general methods, and outcome assessment techniques were similar for all trials; with several exceptions (Table 1). […] For all patients, blinded study drug (acadesine or placebo) was administered intravenously, starting approximately 15 minutes before induction of anesthesia and continuing for a total of 7 hours to include the intraoperative (prebypass and postbypass) and immunediate postoperative (into the intensive care unit) periods.
Prior to surgery, investigators ascertained cardiac history and recorded cardiac catheterization information. The use of agents potentially affecting endogenous adenosine concentration (which could complicate the analysis of efficacy) was restricted, including dipyridamole, theophylline, adenosine, and pentoxifylline. All chronic cardiovascular medications, including nitrates, β-blockers, and calcium channel blockers, were continued until the time of surgery. During surgery, but prior to bypass, the usual monitors wore applied, anesthetic techniques were standardized, and hemodynamic variables (blood pressure, heart rate) were to be maintained within specific boundaries for trials 1013, 1016, and 1023; for trials […], guidelines for anesthetic use and hemodynamic control were recommended. For all studies, prophylactic use of cardiovascular agents having potential anti-ischemic properties (nitrates, calcium channel Mockers) was specifically excluded to avoid confounding data interpretation. During cardiopulmonary bypass, neither the surgical technique nor bypass procedures (including cardioplegia administration) were controlled for the phase 3 trials, and bypass typically was conducted using a membrane oxygenator and arterial filter with hemodilution and moderate systemic hypothermia. Following bypass, the use of inotropic and vasodilating agents (excluding the prophylactic use of anti-ischemic medications) and treatment of clinically detected ischemia were not controlled; all medications administered were recorded.
For all studies, the primary outcome, MI, and other secondary outcomes were ascertained and validated by IREF Coordinating Center investigators who were blinded to patient identity and group assignment. Secondary outcomes included cardiac death, stroke, life-threatening dysrhythmia, and severe heart failure (Table 1). For MI, repeated electrocardiograms (ECGs) were coded centrally by core investigators using Minnesota Code criteria. Creatine kinase-MB (CK-M13) concentrations were sampled approximately 18 times during the first 4 postoperative days and, for phase 3 studies, were analyzed centrally using an immunoenzymetric assay (Hybritech Tandem-E CK-MB II, SmithKline Beecham, Van Nuys, Calif.). The presence of infarction at autopsy was based on pathologic data from the respective institution and confirmed centrally by the Endpoint Committee.

[2] = test system: patients undergoing CABG surgery; test: Phase 2 CABG trial: myocardial ischemia by Holter ECG and TEE; assay type: in vivo, human; settings: for Isch min/h monitored: postbypass, listed as AICA riboside
Description: The evaluation of Holter tapes and echo videotapes was performed centrally by two independent blinded observers; if there was disagreement between the two, a third observer was used to “break the tie.” The same observers were used throughout the study. 5. Ischemic Events-TEE. Ischemic event data were evaluated during two time periods-pre-bypass and post-bypass, using the following analysis: a) The number of patients with ischemic events was compared across the groups using Fisher's exact test. This analysis also included pre-post changes and pre- and post-combined. b) For patients with events, analysis of the mean duration and severity of ischemia was done. […] For severity (an ordinary variable, 0-4 scale) and number of events, the nonparametric test was used. […] 6. Ischemic Events-ECG. The analysis of ischemic events indicated by ECG was done using the same methods as the echo events. The time periods analyzed were: (a) baseline (Holter start to infusion start), (b) pre-bypass (infusion start to bypass start), (c) post-bypass ([…] off to infusion end), and (d) post-treatment (infusion end to Holter end). For patients with events, the following variables were analyzed: mean duration, maximum ST change and area under the curve of significant ST segment deviation. Analysis of variance (ANOVA) was used. 3. Myocardial Ischemia. Myocardial ischemia was measured with continuous Holter ECG and TEE. […] ECG episodes of ischemia were defined as reversible S-T depression 1 mm or greater lasting 1 minute or longer. TEE data were recorded continuously during surgery at the level of the mid-papillary muscles of the left ventricle. The wall motion of each of the four segments was graded from 0-4 (normal to […] ischemia was defined by regional wall motion worsening at least 2 grades and lasting 1 minute or longer.

[3] = death following myocardial infarction, acadesine vs placebo (n = 98)
[4] = patients with myocardial infarction, Acadesine (n = 71)
[5] = patients with myocardial infarction, Acadesine (n = 71), number of patients

For `NC(=O)c1ncn([C@@H]2O[C@H](CO)[C@@H](O)[C@H]2O)c1N` [1 (1-110), 5-amino-1-β-D-ribofuranosyl-imidazole-4-carboxamide], the “decrease of the incidence of perioperative myocardial infarction” value ([1]; 0.1 mg/kg/min for 7 hours vs placebo) was 27%, the “cardiac death following MI through postoperative day 4” value ([1]; acadesine group (1 death/71 MIs), placebo 13.3%) was 1.4% and the “incidence of CVA” value ([1]; acadesine group (32/2012), placebo 2.3%) was 1.6%. The “fewer patients with an adverse outcome” value ([1]; acadesine group vs placebo, combined outcomes) was 41, the incidence of infarction ([1]; acadesine group, placebo 4.9%) was 3.6% and the “cardiac deaths through postoperative day 4, number” value ([1]; acadesine group, placebo 26) was 13. For the same compound, the “Cardiac death at 28 days, patients” value ([1]; acadesine group, placebo 34) was 20, the “patients with myocardial infarction, number” value ([1]; acadesine group, placebo 98) was 71 and the “autopsy-defined MI” value ([1]; acadesine patients, placebo 16/19) was 2/11. For the same compound, the “decrease of cardiac death following MI through postoperative day 4” value ([1]; acadesine vs placebo) was 89%, the “decrease of the incidence of cardiac death through postoperative day 4” value ([1]; acadesine vs placebo) was 50% and the “decrease of the incidence of combined outcome (MI, stroke, or cardiac death)” value ([1]; acadesine vs placebo) was 26%. The noncardiac death ([1]; acadesine vs placebo) was “no effect”, the “reduction of the use of ventricular-assistance devices for severe postoperative heart failure” value ([1]; acadesine vs placebo) was “approximately one third” and the post-MI deaths ([1]; acadesine-treated patients, placebo 21/98) was 4/71. The “cardiac death in the first 4 days in patients without MI or not evaluable for MI” value ([1]; acadesine-treated, placebo 0.7%) was 0.6%, the “Cardiac death by postoperative day 4, Reduction” value [1, 3] was 89% and the “Cardiac death by postoperative day 28, Reduction” value [1, 3] was 79%. For the same compound, the “Death by postoperative day 4, Reduction” value [1, 3] was 79%, the “Death by postoperative day 28, Reduction” value [1, 3] was 74% and the “cardiac failure, immediately life-threatening or prolonging hospitalization” value ([1]; human, in vivo, 7 h) was 2.1%. The “incidence of serious adverse events” value ([1]; human, in vivo, 7 h) was 9.1%, the “use of an intraaortic balloon pump” value ([1]; in vivo) was 2.4% and the “Cardiac death by postoperative day 4, (%)” value [1, 4] was 1 (1) %. The “Cardiac death by postoperative day 28, (%)” value [1, 4] was 4%, the “Death by postoperative day 4, (%)” value [1, 4] was 3% and the “Death by postoperative day 28, (%)” value [1, 4] was 6%. For the same compound, the “Cardiac death by postoperative day 4, No.” value [1, 5] was 1 (1), the “Cardiac death by postoperative day 28, No.” value [1, 5] was 3 and the “Death by postoperative day 4, No.” value [1, 5] was 2. The “Death by postoperative day 28, No.” value [1, 5] was 4, the “reduction in post-MI death” value ([1]; secondary analysis, acadesine vs placebo) was 74% and the “effect size for MI” value ([1]; trial 1016 (n=414)) was 73%. The rate of stroke ([1]; trial 1016, placebo 4.2%) was 0.5%, the “combined adverse cardiovascular outcome (MI, CVA or cardiac death)” value ([1]; trial 1016, placebo […]) was 1.9% and the “infarction rate (Q wave and CK-MB or autopsy)” value ([1]; trial 1016, placebo […]) was 1.5%. For the same compound, the “effect size for MI” value ([1]; trial 1017 (n=821)) was 23%, the “effect size for MI” value ([1]; trial 1024 (n=2698)) was 22% and the Isch min/h monitored ([2]; High Dose) was 27±20 min/h. The Isch min/h monitored ([2]; Low Dose) was 40±15 min/h, the “incidence of ECG ischemia, postbypass period” value ([2]; high dose) was 11% and the “incidence of ECG ischemia, prebypass period” value ([2]; high dose) was 3%. For the same compound, the “incidence of TEE ischemia, postbypass period” value ([2]; high dose) was 24%, the “incidence of TEE ischemia, prebypass period” value ([2]; high dose) was 6% and the “incidence of ECG ischemia, postbypass period” value ([2]; low dose) was 22%. For the same compound, the “incidence of ECG ischemia, prebypass period” value ([2]; low dose) was 3%, the “incidence of TEE ischemia, postbypass period” value ([2]; low dose) was 27% and the “incidence of TEE ischemia, prebypass period” value ([2]; low dose) was 15%.
